The conditions of the data set: Liquid, Closed cell (Static) method.

Numbers after ± are expanded uncertainties.

What is called vapor or sublimation pressure is the equilibrium pressure above the liquid or solid. In the case of `CCOC(=O)OCC` [diethyl carbonate], the “vapor or sublimation pressure” value runs as follows: (373 K) 45.1 ± 2.1 kPa; (412.5 K) 143 ± 5.9 kPa; (452.2 K) 361 ± 15 kPa.
With `CCOC(C)=O` [ethyl acetate], the “vapor or sublimation pressure” value (373 K) is 205.7 ± 9 kPa, the “vapor or sublimation pressure” value (412.8 K) is on record as 557.1 ± 23 kPa and the “vapor or sublimation pressure” value (452.3 K) was 1222.7 ± 49 kPa.
In the case of `CC(=O)Oc1ccccc1` [phenyl ethanoate], the “vapor or sublimation pressure” value by setting is: (373.2 K) 3.5 ± 0.2 kPa; (413.2 K) 18.2 ± 0.8 kPa; (453.2 K) 66.1 ± 2.7 kPa.

Source of the values: the NIST ThermoML archive (doi:10.1016/j.jct.2015.07.024).
